Test results reported in ChEMBL document CHEMBL1145519, “Exploitation of structural and regulatory diversity in glutamate racemases” (Nature, 2007).
≈ marks a conversion by molar mass, not a printed value.

How the values were obtained:
Glutamate racemase [1] = target: T1, Glutamate racemase (Helicobacter pylori (strain ATCC 700392 / 26695) (Campylobacterpylori), UniProt P56068); test: Inhibition of Helicobacter pylori glutamate racemase
T1 sequence (P56068 whole entry): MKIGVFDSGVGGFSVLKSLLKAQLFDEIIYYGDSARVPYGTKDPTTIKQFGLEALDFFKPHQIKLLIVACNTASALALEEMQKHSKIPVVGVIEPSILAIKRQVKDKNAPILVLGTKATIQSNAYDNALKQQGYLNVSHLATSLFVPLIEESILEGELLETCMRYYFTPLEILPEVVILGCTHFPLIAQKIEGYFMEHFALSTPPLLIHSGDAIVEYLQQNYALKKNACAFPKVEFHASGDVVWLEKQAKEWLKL

Glutamate racemase [2] = target: Glutamate racemase (Helicobacter pylori (strain ATCC 700392 / 26695) (Campylobacterpylori), UniProt P56068, A75T); test: Inhibition of Helicobacter pylori MurI A75T mutant
Glutamate racemase [3] = target: Glutamate racemase (Helicobacter pylori (strain ATCC 700392 / 26695) (Campylobacterpylori), UniProt P56068, E151K); test: Inhibition of Helicobacter pylori MurI E151K mutant
Glutamate racemase [4] = target: T1, Glutamate racemase; test: Binding affinity to Helicobacter pylori MurI by protein fluorescence binding assay
Glutamate racemase [5] = target: T1, Glutamate racemase; test: Binding affinity to Helicobacter pylori MurI by isothermal titration calorimetry
[6] = Inhibition of MurI in Staphylococcus aureus
Glutamate racemase [7] = target: T2, Glutamate racemase (Streptococcus pneumoniae serotype 4 (strain ATCC BAA-334 / TIGR4), UniProt P63640); test: Inhibition of MurI in Streptococcus pneumoniae
T2 sequence (P63640 whole entry): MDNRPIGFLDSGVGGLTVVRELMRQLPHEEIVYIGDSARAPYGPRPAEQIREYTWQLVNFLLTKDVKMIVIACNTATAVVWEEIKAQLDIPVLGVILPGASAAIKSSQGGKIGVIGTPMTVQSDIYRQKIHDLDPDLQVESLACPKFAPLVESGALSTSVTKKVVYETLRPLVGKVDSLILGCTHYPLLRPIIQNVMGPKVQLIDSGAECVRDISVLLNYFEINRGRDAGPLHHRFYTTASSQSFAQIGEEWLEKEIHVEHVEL

[8] = Inhibition of MurI in Escherichia coli
Helicobacter pylori = test: Antimicrobial activity against Helicobacter pylori; format: functional
Staphylococcus aureus = test: Antimicrobial activity against Staphylococcus aureus; format: functional
Streptococcus pneumoniae = test: Antimicrobial activity against Streptococcus pneumoniae; format: functional
Escherichia coli = test: Antimicrobial activity against Escherichia coli; format: functional

Sequence of Glutamate racemase (Helicobacter pylori (strain ATCC 700392 / 26695) (Campylobacterpylori), UniProt P56068, E151K) (P56068 whole entry E151K): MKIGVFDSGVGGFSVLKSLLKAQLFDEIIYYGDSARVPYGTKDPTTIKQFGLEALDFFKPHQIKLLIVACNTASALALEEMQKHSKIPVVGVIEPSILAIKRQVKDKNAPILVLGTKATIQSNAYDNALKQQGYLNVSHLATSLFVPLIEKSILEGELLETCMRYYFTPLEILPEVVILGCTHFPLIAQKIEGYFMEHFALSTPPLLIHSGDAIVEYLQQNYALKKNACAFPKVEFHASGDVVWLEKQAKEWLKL
Sequence of Glutamate racemase (Helicobacter pylori (strain ATCC 700392 / 26695) (Campylobacterpylori), UniProt P56068, A75T) (P56068 whole entry A75T): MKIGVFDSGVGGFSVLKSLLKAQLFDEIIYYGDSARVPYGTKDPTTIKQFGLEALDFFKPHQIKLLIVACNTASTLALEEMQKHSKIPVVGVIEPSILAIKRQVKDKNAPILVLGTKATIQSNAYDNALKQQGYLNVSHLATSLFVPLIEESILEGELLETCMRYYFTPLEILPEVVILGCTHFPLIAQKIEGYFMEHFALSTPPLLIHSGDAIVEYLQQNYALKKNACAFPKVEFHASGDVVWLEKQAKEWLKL

Row | Compound | Ki (Glutamate racemase [1]) | Ki (Glutamate racemase [2]) | Ki (Glutamate racemase [3]) | IC50 (Glutamate racemase [1]) | Kd (Glutamate racemase [4]) | Kd (Glutamate racemase [5]) | IC50 [6] | IC50 (Glutamate racemase [7]) | IC50 [8] | MIC (Helicobacter pylori) | MIC (Staphylococcus aureus) | MIC (Streptococcus pneumoniae) | MIC (Escherichia coli)
1 | N[C@H](CCC(=O)O)C(=O)O [D-GLUTAMATE] | 5.8 µM | 661 µM | > 100000 µM | – | – | – | – | – | – | – | – | – | –
2 | CC(C)Cn1c(=O)n(C)c(=O)c2c(-c3ccncc3)n(Cc3cccc4ccccc34)nc21 | – | – | – | 1.4 µM | 3.9 µM | 2.9 µM | > 400 µM | > 400 µM | > 400 µM | 4 µg/mL (≈ 9.1 µM) | > 64 µg/mL | > 64 µg/mL | > 64 µg/mL
3 | Cn1cc(C#N)cc1-c1c2c(=O)n(C)c(=O)n(CC3CC3)c2nn1Cc1ccnc2ccc(Cl)cc12 | – | – | – | 0.025 µM | 0.025 µM | – | > 400 µM | > 400 µM | > 400 µM | 0.5 µg/mL (≈ 1 µM) | > 64 µg/mL | > 64 µg/mL | > 64 µg/mL
